Reference: patent US20040071768A1, “Compositions and methods for treating cancer” (Inex Pharmaceuticals Corporation, priority 1999, published 2004)

What was measured:
MX-1 breast xenografts = experiment: Single dose anti-tumor activity, MX-1 breast xenograft; format: in vivo
Experimental: (§1) Female NCr nude mice were injected intravenously via the lateral tail vein on day 8 post-tumor-implantation with saline (♦), NVB at 34.0 mg/kg (◯) and 25.5 mg/kg (□), or NVB-TCS at 15.0 mg/kg (●) and 11.0 mg/kg (▪) at a drug-to-lipid ratio of 0.3:1 (w/w). The arrow on the x-axis denotes the day of drug administration. Data points represent mean±SEM (n=10). […]
(§2) Tumor models investigated included RXF393 (renal), MX-1 (breast), LX-1 (small cell lung cancer), PC-3 (prostate), and HT29 (colon). These models were known to be sensitive to vinorelbine. Tumor fragments were implanted subcutaneously in the flank of NCr nu/nu mice. […] Animal weights and tumor size were determined twice weekly.

[1] = test system: LX-1 small cell lung xenografts; experiment: Single dose anti-tumor activity, LX-1 small cell lung xenograft; format: in vivo
Experimental: Female NCr nude mice were injected intravenously via the lateral tail vein on day 11 post-tumor-implantation with saline (♦), NVB at 25.5 mg/kg (◯), or NVB-TCS at 15.0 mg/kg (●) and 11.0 mg/kg (▪) at a drug-to-lipid ratio of 0.3:1 (w/w). The arrow on the x-axis denotes the day of drug administration. Data points represent mean±SEM (n=7).
Vinorelbine is used clinically in the treatment of advanced NSCLC and metastatic breast cancer.
as §2

HT29 colon xenografts = experiment: Single dose anti-tumor activity, HT29 colon xenograft; format: in vivo; conditions: HT-29
Experimental: as §1, with “12” for “8”, “30.0” for “34.0”, “(n=7).” for “(n=10).”
as §2

RXF393 renal xenografts = experiment: Single dose anti-tumor activity, RXF393 renal xenograft; format: in vivo; conditions: RXF-393
Experimental: as §1, with “Male” for “Female”, “7” for “8”, “45.0” for “34.0”, “34.0” for “25.5”
as §2

[2] = test system: NCl H460 non small cell lung xenografts; experiment: Multiple dose (q7dx3) anti-tumor activity, NCl H460 non small cell lung xenograft
Experimental: Female NCr nude mice were injected intravenously (q7dx3, beginning day 7) via the lateral tail vein. […] Mitomycin C (⋄) was prepared in saline and injected iv (q4dx3) at a dose of 3 mg/kg/dose. Drug-to-lipid ratio was 0.3/1 (w/w). Data points represent median tumor volume (n=6).
The anti-tumor activity of multiple (q7d3) dose schedules of liposomal vinorelbine was evaluated in several human xenograft tumor models. The goal of this series of studies was to identify the benefits of encapsulation by evaluating a series of doses and determining the therapeutic index in several xenograft models. Models were selected based on the following criteria: (1) activity in the single dose studies, (2) a comprehensive literature review of vinca alkaloid efficacy, (3) a desire to include at least 2-3 models that represent the clinical use of vinorelbine, and (4) a desire to include models with a range of sensitivity to vinorelbine so that improvements resulting from the use of the liposome formulation might be identified. Based on these criteria, MX-1 and MDA-MB-435 breast models, the NCl-H460 NSCLC model and the HT-29 and DLD-1 colon models were chosen.
Therapeutic index (TI) is a parameter that quantifies the “safety factor” of a particular therapy. TI is a ratio of a toxicity parameter and a biological activity parameter. Therefore, a higher ratio represents a greater potential margin of safety. For these studies, TI is defined as follows: […]
The minimal effective dose (MED) was set according to NCl activity criteria as the dose resulting in an optimal % T/C of 40. This information was derived from Table 7.

For CCC1=C[C@@H]2CN(C1)Cc1c([nH]c3ccccc13)[C@@](C(=O)OC)(c1cc3c(cc1OC)N(C)[C@H]1[C@@](O)(C(=O)OC)[C@H](OC(C)=O)[C@]4(CC)C=CCN5CC[C@]31[C@@H]54)C2 [VRL, 5′-noranhydrovinblastine], the “% T/C (optimal % T/C following final treatment)” value (MX-1 breast xenografts; single i.v. dose 25.5 mg/kg) was 13%, the “DRD (drug related deaths)” value (MX-1 breast xenografts; single i.v. dose 25.5 mg/kg) was 1/10 and the “MWL (maximum mean weight loss per treatment group)” value (MX-1 breast xenografts; single i.v. dose 25.5 mg/kg) was −14.8. The “NCI Score” value (MX-1 breast xenografts; single i.v. dose 25.5 mg/kg) was 1, the “T-C (tumor growth delay to 1000 mm^3)” value (MX-1 breast xenografts; single i.v. dose 25.5 mg/kg) was 13 and the “TF (tumor free animals at the end of study)” value (MX-1 breast xenografts; single i.v. dose 25.5 mg/kg) was 1/9. The “% T/C (optimal % T/C following final treatment)” value (MX-1 breast xenografts; single i.v. dose 34 mg/kg) was 11%, the “DRD (drug related deaths)” value (MX-1 breast xenografts; single i.v. dose 34 mg/kg) was 0/10 and the “MWL (maximum mean weight loss per treatment group)” value (MX-1 breast xenografts; single i.v. dose 34 mg/kg) was −17.4. For the same molecule, the “NCI Score” value (MX-1 breast xenografts; single i.v. dose 34 mg/kg) was 1, the “T-C (tumor growth delay to 1000 mm^3)” value (MX-1 breast xenografts; single i.v. dose 34 mg/kg) was 16 and the “TF (tumor free animals at the end of study)” value (MX-1 breast xenografts; single i.v. dose 34 mg/kg) was 3/10. For the same molecule, the “% T/C (optimal % T/C following final treatment)” value ([1]; single i.v. dose 25.5 mg/kg) was 23%, the “DRD (drug related deaths)” value ([1]; single i.v. dose 25.5 mg/kg) was 0/6 and the “NCI Score” value ([1]; single i.v. dose 25.5 mg/kg) was 1. For the same molecule, the “T-C (tumor growth delay to 1000 mm^3)” value ([1]; single i.v. dose 25.5 mg/kg) was 7, the “TF (tumor free animals at the end of study)” value ([1]; single i.v. dose 25.5 mg/kg) was 0/6 and the “% T/C (optimal % T/C following final treatment)” value ([1]; single i.v. dose 34 mg/kg) was “Toxic”. The “DRD (drug related deaths)” value ([1]; single i.v. dose 34 mg/kg) was 7/7, the “% T/C (optimal % T/C following final treatment)” value ([1]; single i.v. dose 45 mg/kg) was “Toxic” and the “DRD (drug related deaths)” value ([1]; single i.v. dose 45 mg/kg) was 7/7. For the same molecule, the “% T/C (optimal % T/C following final treatment)” value (HT29 colon xenografts; single i.v. dose 25.5 mg/kg) was 35%, the “DRD (drug related deaths)” value (HT29 colon xenografts; single i.v. dose 25.5 mg/kg) was 0/7 and the “MWL (maximum mean weight loss per treatment group)” value (HT29 colon xenografts; single i.v. dose 25.5 mg/kg) was −9.8. The “NCI Score” value (HT29 colon xenografts; single i.v. dose 25.5 mg/kg) was 1, the “T-C (tumor growth delay to 1000 mm^3)” value (HT29 colon xenografts; single i.v. dose 25.5 mg/kg) was 12 and the “TF (tumor free animals at the end of study)” value (HT29 colon xenografts; single i.v. dose 25.5 mg/kg) was 1/7. For the same molecule, the “% T/C (optimal % T/C following final treatment)” value (HT29 colon xenografts; single i.v. dose 30 mg/kg) was 31%, the “DRD (drug related deaths)” value (HT29 colon xenografts; single i.v. dose 30 mg/kg) was 0/7 and the “MWL (maximum mean weight loss per treatment group)” value (HT29 colon xenografts; single i.v. dose 30 mg/kg) was −9.3. For the same molecule, the “NCI Score” value (HT29 colon xenografts; single i.v. dose 30 mg/kg) was 1, the “T-C (tumor growth delay to 1000 mm^3)” value (HT29 colon xenografts; single i.v. dose 30 mg/kg) was 9 and the “TF (tumor free animals at the end of study)” value (HT29 colon xenografts; single i.v. dose 30 mg/kg) was 1/7. The “% T/C (optimal % T/C following final treatment)” value (RXF393 renal xenografts; single i.v. dose 34 mg/kg) was −6%, the “DRD (drug related deaths)” value (RXF393 renal xenografts; single i.v. dose 34 mg/kg) was 2/10 and the “MWL (maximum mean weight loss per treatment group)” value (RXF393 renal xenografts; single i.v. dose 34 mg/kg) was −23.1. The “NCI Score” value (RXF393 renal xenografts; single i.v. dose 34 mg/kg) was 2, the “T-C (tumor growth delay to 1000 mm^3)” value (RXF393 renal xenografts; single i.v. dose 34 mg/kg) was 22 and the “TF (tumor free animals at the end of study)” value (RXF393 renal xenografts; single i.v. dose 34 mg/kg) was 2/8. For the same molecule, the “% T/C (optimal % T/C following final treatment)” value (RXF393 renal xenografts; single i.v. dose 45 mg/kg) was “Toxic”, the “DRD (drug related deaths)” value (RXF393 renal xenografts; single i.v. dose 45 mg/kg) was 9/10 and the “MWL (maximum mean weight loss per treatment group)” value (RXF393 renal xenografts; single i.v. dose 45 mg/kg) was −24.6. The “TF (tumor free animals at the end of study)” value (RXF393 renal xenografts; single i.v. dose 45 mg/kg) was 0/1, the “% T/C (optimal % T/C following final treatment)” value ([2]; 5 mg/kg i.v. q7dx3) was 63% and the “DRD (drug related deaths, n = 6)” value ([2]; 5 mg/kg i.v. q7dx3) was 0. For the same molecule, the “NCI Score” value ([2]; 5 mg/kg i.v. q7dx3) was 0, the “T-C (tumor growth delay to 1000 mm^3)” value ([2]; 5 mg/kg i.v. q7dx3) was 2.8 and the “TF (tumor free animals at the end of study)” value ([2]; 5 mg/kg i.v. q7dx3, n=6) was 0. For the same molecule, the “% T/C (optimal % T/C following final treatment)” value ([2]; 10 mg/kg i.v. q7dx3) was 45%, the “DRD (drug related deaths, n = 6)” value ([2]; 10 mg/kg i.v. q7dx3) was 0 and the “NCI Score” value ([2]; 10 mg/kg i.v. q7dx3) was 0. For the same molecule, the “T-C (tumor growth delay to 1000 mm^3)” value ([2]; 10 mg/kg i.v. q7dx3) was 6.2, the “TF (tumor free animals at the end of study)” value ([2]; 10 mg/kg i.v. q7dx3, n=6) was 0 and the “% T/C (optimal % T/C following final treatment)” value ([2]; 20 mg/kg i.v. q7dx3) was 30%. For the same molecule, the “DRD (drug related deaths, n = 6)” value ([2]; 20 mg/kg i.v. q7dx3) was 0, the “NCI Score” value ([2]; 20 mg/kg i.v. q7dx3) was 1 and the “T-C (tumor growth delay to 1000 mm^3)” value ([2]; 20 mg/kg i.v. q7dx3) was 9.1. The “TF (tumor free animals at the end of study)” value ([2]; 20 mg/kg i.v. q7dx3, n=6) was 0, the “% T/C (optimal % T/C following final treatment)” value ([2]; 30 mg/kg i.v. q7dx3) was 10% and the “DRD (drug related deaths, n = 6)” value ([2]; 30 mg/kg i.v. q7dx3) was 2. The “NCI Score” value ([2]; 30 mg/kg i.v. q7dx3) was 1, the “T-C (tumor growth delay to 1000 mm^3)” value ([2]; 30 mg/kg i.v. q7dx3) was 19.1 and the “TF (tumor free animals at the end of study)” value ([2]; 30 mg/kg i.v. q7dx3, n=6) was 0.
